# Publication PMC10641236, “Influenza A virus replication has a stronger dependency on Raf/MEK/ERK signaling pathway activity than SARS-CoV-2” (Frontiers in Cellular and Infection Microbiology, 2023)
# Where two headings read alike, the source gives them in different places.
# Key:
# IAV PR8 = assay type: cell-based; settings: 100 µM, Caco-2 cells, MOI 4, 10 h
# SARS-CoV-2 = assay: Virus yield reduction assay, SARS-CoV-2 (virus titer by RT-qPCR); assay type: cell-based; settings: for reduction of virus titer compared to solvent control: 5% FBS; for reduction of virus titer compared to solvent control / reduction of the virus titer: 24 h; for reduction of the virus titer: Calu-3 and Caco-2 cells
# Procedure: Calu-3 and Caco-2 cells were seeded in 24-well plates (Greiner Bio-One GmbH, Frickenhausen, Germany) and grown to 90% confluence. The cells were washed once with infection medium [IMDM supplemented with 0.2% bovine serum albumin (BSA) (Carl Roth GmbH + Co. KG, Karlsruhe, Germany) and 1% penicillin–streptomycin] prior to infection with a multiplicity of infection (MOI) of 0.01 of IAV PR8 or SARS-CoV-2 for 1 h in 200 µL of infection medium per well. Afterwards, the virus inoculum was removed completely, and the cells were washed once with infection medium and then treated with 1 mL per well of different concentrations of zapnometinib in infection medium with 1% dimethyl sulfoxide (DMSO) (Merck Millipore, Burlington, MA, USA) for 24 h at 37°C, 5% CO2. Supernatants were harvested and stored at −80°C for subsequent determination of virus titer and EC50 value. Cell lysates were prepared as described in the “Preparation of cell lysates and WES™ analysis” section for WES™ analysis.
# The viral titers of IAV and SARS-CoV-2 viruses were determined using a real-time one-step multiplex RT-qPCR method. Briefly, viral nucleic acid extraction was performed using a QIAamp Viral RNA Mini Kit (Qiagen, Venlo, Netherlands) according to the manufacturer’s instructions. A TaqMan-based RT-qPCR assay was carried out using a QuantiNova Pathogen kit (Qiagen, Venlo, Netherlands) with specific primers targeting the SARS-CoV-2 N gene (2019-CoV2-N1F: […], 2019-CoV2-N1R: […], 2019-CoV2-N1P [6FAM]: […] [BHQ1]) and M gene for IAV according to the WHO guidelines. The viral genome copies per mL (gc/mL) were determined based on a standard curve prepared with 10-fold serial dilutions of the target gene. For quality control, nuclease-free water was included in each set of extractions as a negative control to monitor any possible cross-contamination. Moreover, an artificial exogenous QuantiNova RNA internal control (Qiagen, Venlo, Netherlands) was included during the nucleic acid purification to monitor the RNA purification efficiency and the RT-PCR amplification. A Rotor-Gene Q™ Real-Time PCR detection system (Qiagen, Venlo, Netherlands) was used for amplification, and the data were analyzed using Q-Rex software (Qiagen, Venlo, Netherlands).
# For EC50 determination, a virus yield reduction assay was performed. The virus titer in the cell culture supernatant was determined and normalized to the solvent control. The EC50 value was determined using the “log(inhibitor) vs. normalized response - Variable slope” equation in GraphPad Prism version 9.4.0.
smiles,measurement,setting,value
"O=C(O)c1ccc(F)c(F)c1Nc1ccc(I)cc1Cl [zapnometinib, 2-(2-chloro-4-iodophenylamino)-N-3,4-difluoro benzoic acid]",Infected cells (IAV PR8 NP positive) normalized to solvent control,IAV PR8,44.9%
same,localization of the IAV NP,IAV PR8,retention of the IAV NP in the nucleus
same,reduction of virus titer compared to solvent control,"SARS-CoV-2; 6.25 µM, Caco-2 cells",No significant reduction
same,reduction of virus titer compared to solvent control,"SARS-CoV-2; 12.5 µM, Caco-2 cells",No significant reduction
same,reduction of virus titer compared to solvent control,"SARS-CoV-2; 25 µM, Caco-2 cells",> 39%
same,reduction of the virus titer,"SARS-CoV-2; 25 µM, 0.2% BSA",≥ 50%
same,reduction of virus titer compared to solvent control,"SARS-CoV-2; 50 µM, Caco-2 cells",> 60%
same,reduction of the virus titer,"SARS-CoV-2; 50 µM, 0.2% BSA",≥ 50%
same,reduction of virus titer compared to solvent control,"SARS-CoV-2; 75 µM, Caco-2 cells",> 94%
same,reduction of the virus titer,"SARS-CoV-2; 75 µM, 0.2% BSA",> 90%
same,reduction of virus titer compared to solvent control,"SARS-CoV-2; 100 µM, Caco-2 cells",> 99%
same,reduction of the virus titer,"SARS-CoV-2; 100 µM, 0.2% BSA",> 90%
same,EC50,"SARS-CoV-2; Caco-2 cells, 0.2% BSA, MOI 0.01, 24 h, read-out: EC50 value against SARS-CoV-2 (FI)",22.9 µM
same,EC50,"SARS-CoV-2; Severe acute respiratory syndrome coronavirus 2, Caco-2, 24 h, Caco-2 cells, 0.2% BSA, MOI 0.01, 24 h, read-out: EC50 value against SARS-CoV-2 (FI)",22.9 µM
same,EC50,"SARS-CoV-2; Severe acute respiratory syndrome coronavirus 2, Caco-2, Caco-2 cells, medium containing 5% FBS, MOI 0.01, treatment 1 h post-infection, titer after 24 h, read-out: EC50 value against SARS-CoV-2",34.2 µM
same,EC50,"SARS-CoV-2; Severe acute respiratory syndrome coronavirus 2, Calu-3, 24 h, Calu-3 cells, 0.2% BSA, MOI 0.01, 24 h, read-out: EC50 value against SARS-CoV-2 (FI)",19.7 µM
same,EC50,"SARS-CoV-2; Severe acute respiratory syndrome coronavirus 2, summary for Calu-3 and Caco-2 cells, 0.2% BSA, read-out: EC50 values for SARS-CoV-2 in both cell lines",~20 µM
